Measurements reported in patent publication US20080146502A1, “Methods for modulating the sensation of satiety perception and agents useful for same” (Autogen Research Pty Ltd., priority 2004, published 2008).
In brackets after ≈: the same amount, converted by molar mass.

Tests used:
food intake in rats = test: Food intake in fasted rats after single intragastric gavage; type: in vivo; conditions: for Food Intake: 5 mg/kg in saline, mean ± sem
Experimental: Adult, male rats were fasted for 16 hours then administered with a single intragastric gavage of 1-[beta-[3-(4-Methoxyphenyl)propoxy]-4-methoxyphenethyl]-1H-imidazole.HCl at a dose of 5 mg/kg in saline in a volume of 0.5 ml, or saline alone (0.5 ml). There were 8 animals in each group. Food intake was measured at various timepoints over the following 24 hours.

[1] = test system: receptor-mediated Ca^2+ entry in stimulated platelets; conditions: cited from earlier work
[2] = test system: receptor-mediated Ca^2+ entry in neutrophils; conditions: cited from earlier work
[3] = test system: receptor-mediated Ca^2+ entry in endothelial cells; conditions: cited from earlier work
[4] = cited from earlier work
TRPV channels = conditions: cited from earlier work

Structure (SMILES): COc1ccc(CCCOC(Cn2ccnc2)c2ccc(OC)cc2)cc1 (stereo not drawn) [1-[β-[3-(4-methoxyphenyl)propoxy]-4-methoxyphenethyl]-1H-imidazole]
- food intake, trend vs saline (food intake in rats; 5 mg/kg gavage, after 3 h, 5 h, 6 h, 8 h, 9 h, 10 h and 24 h, p<0.10): strong trends for reduced food intake
- Food Intake (food intake in rats; 0.5 h after single intragastric gavage, rats fasted 16 h): 2.4 ± 0.3 g
- Food Intake (food intake in rats; 1 h after single intragastric gavage, rats fasted 16 h): 2.8 ± 0.3 g
- Food Intake (food intake in rats; 2 h after single intragastric gavage, rats fasted 16 h): 2.9 ± 0.3 g
- Food Intake (food intake in rats; 3 h after single intragastric gavage, rats fasted 16 h): 3.8 ± 0.4 g
- Food Intake (food intake in rats; 4 h after single intragastric gavage, rats fasted 16 h): 4.9 ± 0.5 g
- Food Intake (food intake in rats; 5 h after single intragastric gavage, rats fasted 16 h): 5.1 ± 0.5 g
- Food Intake (food intake in rats; 6 h after single intragastric gavage, rats fasted 16 h): 6.3 ± 0.5 g
- Food Intake (food intake in rats; 7 h after single intragastric gavage, rats fasted 16 h): 7.4 ± 0.6 g
- Food Intake (food intake in rats; 8 h after single intragastric gavage, rats fasted 16 h): 8.2 ± 0.6 g
- Food Intake (food intake in rats; 9 h after single intragastric gavage, rats fasted 16 h): 9.3 ± 0.6 g
- Food Intake (food intake in rats; 10 h after single intragastric gavage, rats fasted 16 h): 10.3 ± 0.6 g
- Food Intake (food intake in rats; 11 h after single intragastric gavage, rats fasted 16 h): 11.5 ± 0.6 g
- Food Intake (food intake in rats; 12 h after single intragastric gavage, rats fasted 16 h): 12.4 ± 0.6 g
- Food Intake (food intake in rats; 24 h after single intragastric gavage, rats fasted 16 h): 18.4 ± 0.8 g
- food intake over the period of the study (food intake in rats; rats fasted 16 h, 5 mg/kg single intragastric gavage in saline vs saline alone, 24 h): reduced food intake over the period of the study
- IC50 [1]: 8 to 12 µM
- inhibition of receptor-mediated Ca^2+ entry [2]: selective inhibitor
- inhibition of receptor-mediated Ca^2+ entry [3]: selective inhibitor
- Solubility in water [4]: 30 mg/mL (≈ 81.9 mM)

Structure (SMILES): N.N.N.N.N.N.N.N.N.N.N.N.N.N.[Cl-].[Cl-].[Cl-].[Cl-].[Cl-].[Cl-].[O-2].[O-2].[Ru+3].[Ru+3].[Ru+4] [Ruthenium Red]
- block of TRPV channels (TRPV channels): blocks all TRPV channels
